Measurements published in ChEMBL document CHEMBL4350974, “Synthesis and biological evaluation of methylpyrimidine-fused tricyclic diterpene analogs as novel oral anti-late-onset hypogonadism agents” (Eur J Med Chem, 2019).
The source made the active and inactive calls. The calls are words filed in the database; no cut-off is given here.

Legend:
[1] = Half-life in Sprague-Dawley rat plasma at 5 mg/kg, iv up to 5 hrs by LC/MS analysis; format: ADME, organism-based
Rattus norvegicus [2] = test: Anti late-onset hypogonadism activity in cyclophosphamide-induced Sprague-Dawley rat model of partial androgen deficiency assessed as inhibition of Leydig cells apoptosis at 50 to 100 mg/kg, po qd administered for 4 weeks by DAPI staining based TUNEL assay; format: functional, organism-based
Rattus norvegicus [3] = species on record: Rattus norvegicus; test: Anti late-onset hypogonadism activity in cyclophosphamide-induced Sprague-Dawley rat model of partial androgen deficiency assessed as induction of autophagy in Leydig cells immunohistochemical analysis; format: functional, organism-based
[4] = Toxicity in cyclophosphamide - induced Sprague-Dawley rat model of partial androgen deficiency assessed as sperm viability at 50 mg/kg by semen analysis (reference value: 95.1 +/- 3.2 %); format: organism-based; details: in vivo
Rattus norvegicus [5] = test: Anti late-onset hypogonadism activity in cyclophosphamide-induced Sprague-Dawley rat model of partial androgen deficiency assessed as intratesticular testosterone level at 100 mg/kg, po qd administered for 4 weeks by ELISA (reference value: 137.99 +/- 19.27 nmol/L); format: functional
[6] = AUC (0 to infinity) in Sprague-Dawley rat plasma at 5 mg/kg, iv by LC/MS analysis; format: ADME, organism-based; set-up: dose 5 mg/kg, route intravenous, time infinity
[7] = Oral bioavailability in Sprague-Dawley rat at 50 mg/kg by LC/MS analysis; format: ADME, organism-based; details: in vivo
[8] = Toxicity in cyclophosphamide - induced Sprague-Dawley rat model of partial androgen deficiency assessed as effect on spleen at 50 to 100 mg/kg by HE staining based histopathological analysis; format: organism-based; details: in vivo
[9] = Cytotoxicity against mouse NIH/3T3 cells assessed as reduction in cell viability measured after 24 hrs by sulforhodamine B assay; format: cell-based, NIH3T3
[10] = Mean residence time in Sprague-Dawley rat at 50 mg/kg, po by LC/MS analysis; format: ADME, organism-based; details: in vivo
Rattus norvegicus [11] = test: Anti late-onset hypogonadism activity in cyclophosphamide-induced Sprague-Dawley rat model of partial androgen deficiency assessed as increase in serum total testosterone level at 50 to 100 mg/kg, po qd administered for 4 weeks and measured every 2 weeks by ELISA; format: functional, organism-based
[12] = Initial plasma concentration in Sprague-Dawley rat plasma at 5 mg/kg, iv by LC/MS analysis; format: ADME, organism-based
[13] = Volume of distribution in Sprague-Dawley rat plasma at 5 mg/kg, iv up to 5 hrs by LC/MS analysis; format: ADME, organism-based
[14] = Toxicity in cyclophosphamide - induced Sprague-Dawley rat model of partial androgen deficiency assessed as effect on lung at 50 to 100 mg/kg by HE staining based histopathological analysis; format: organism-based; details: in vivo
TM3 [15] = test: Induction of autophagy in mouse TM3 cells assessed as increase in LC3-II protein level at 10 to 100 uM by Western blot analysis; format: functional, cell-based
[16] = Toxicity in cyclophosphamide - induced Sprague-Dawley rat model of partial androgen deficiency assessed as sperm viability at 100 mg/kg by semen analysis (reference value: 95.1 +/- 3.2 %); format: organism-based; details: in vivo
Rattus norvegicus [17] = species on record: Rattus norvegicus; test: Anti late-onset hypogonadism activity in cyclophosphamide-induced Sprague-Dawley rat model of partial androgen deficiency assessed as prevention of testicular atrophy; format: functional, organism-based
TM3 [18] = test: Induction of autophagy in mouse TM3 cells assessed as increase in ATG5 protein level at 10 to 100 uM by Western blot analysis; format: functional, cell-based
[19] = Toxicity in cyclophosphamide-induced Sprague-Dawley rat model of partial androgen deficiency assessed as decrease in body weight at 50 to 100 mg/kg, po qd administered for 4 weeks and measured every 3 days; format: organism-based; details: in vivo
Rattus norvegicus [20] = test: Anti late-onset hypogonadism activity in cyclophosphamide-induced Sprague-Dawley rat model of partial androgen deficiency assessed as increase in StAR mRNA level at 50 to 100 mg/kg by RT-PCR analysis; format: functional, organism-based
Rattus norvegicus [21] = test: Anti late-onset hypogonadism activity in cyclophosphamide-induced Sprague-Dawley rat model of partial androgen deficiency assessed as weight of testis at 100 mg/kg, po qd administered for 4 weeks (reference value: 1.47 +/- 0.13 g); format: functional
Rattus norvegicus [22] = test: Anti late-onset hypogonadism activity in cyclophosphamide-induced Sprague-Dawley rat model of partial androgen deficiency assessed as weight of testis at 50 mg/kg, po qd administered for 4 weeks (reference value: 1.47 +/- 0.13 g); format: functional
TM3 [23] = test: Induction of testosterone production in mouse TM3 cells assessed as increase in StAR mRNA expression level after 24 hrs by qRT-PCR analysis; format: functional, cell-based
[24] = AUC (0 to infinity) in Sprague-Dawley rat plasma at 50 mg/kg, po by LC/MS analysis; format: ADME, organism-based; set-up: dose 50 mg/kg, route oral, time infinity
Rattus norvegicus [25] = test: Anti late-onset hypogonadism activity in cyclophosphamide-induced Sprague-Dawley rat model of partial androgen deficiency assessed as intratesticular testosterone level at 50 mg/kg, po qd administered for 4 weeks by ELISA (reference value: 137.99 +/- 19.27 nmol/L); format: functional
Rattus norvegicus [26] = test: Anti late-onset hypogonadism activity in cyclophosphamide-induced Sprague-Dawley rat model of partial androgen deficiency assessed as increase in 3 beta- HSD mRNA level at 100 mg/kg by RT-PCR analysis; format: functional, organism-based
[27] = Cytotoxicity against human HAF cells assessed as reduction in cell viability measured after 24 hrs by sulforhodamine B assay; format: cell-based
[28] = Half-life in Sprague-Dawley rat plasma at 50 mg/kg, po up to 12 hrs by LC/MS analysis; format: ADME, organism-based
[29] = AUC (0 to t) in Sprague-Dawley rat plasma at 50 mg/kg, po up to 12 hrs by LC/MS analysis; format: ADME, organism-based; set-up: dose 50 mg/kg, time < 12 hr, route oral
TM3 [30] = test: Induction of autophagy in mouse TM3 cells assessed as dephosphorylation of mTOR at 10 to 100 uM by Western blot analysis; format: functional, cell-based
[31] = Toxicity in cyclophosphamide - induced Sprague-Dawley rat model of partial androgen deficiency assessed as effect on kidney at 50 to 100 mg/kg by HE staining based histopathological analysis; format: organism-based; details: in vivo
[32] = AUC (0 to t) in Sprague-Dawley rat plasma at 5 mg/kg, iv up to 5 hrs by LC/MS analysis; format: ADME, organism-based; set-up: time < 5 hr, dose 5 mg/kg, route intravenous
TM3 [33] = test: Induction of autophagy in mouse TM3 cells assessed as increase in LC3-II/LC3-I ratio at 10 to 100 uM after 24 hrs by Western blot analysis; format: functional, cell-based
[34] = Toxicity in cyclophosphamide - induced Sprague-Dawley rat model of partial androgen deficiency assessed as sperm motility at 100 mg/kg by semen analysis (reference value: 88.3 +/- 7.3 %); format: organism-based; details: in vivo
Rattus norvegicus [35] = test: Anti late-onset hypogonadism activity in cyclophosphamide-induced Sprague-Dawley rat model of partial androgen deficiency assessed as increase in LC3 expression at 50 to 100 mg/kg by immunohistochemical analysis; format: functional, organism-based
[36] = Toxicity in cyclophosphamide - induced Sprague-Dawley rat model of partial androgen deficiency assessed as effect on liver at 50 to 100 mg/kg by HE staining based histopathological analysis; format: organism-based; details: in vivo
[37] = Cmax in Sprague-Dawley rat plasma at 50 mg/kg, po up to 12 hrs by LC/MS analysis; format: ADME, organism-based; set-up: dose 50 mg/kg, route oral

half-life [1]: 7.59 h | AUC(0-inf) [6]: 551 ng·h/mL | bioavailability [7]: 57% | MRT [10]: 7.76 h | C0 [12]: 279 ng/mL | Vd [13]: 103 L/kg | AUC(0-inf) [24]: 3140 ng·h/mL | half-life [28]: 4.44 h | AUC(0-t) at 12 h [29]: 3050 ng·h/mL | AUC(0-t) at 5 h [32]: 453 ng·h/mL | Cmax [37]: 239 ng/mL
Compound: CNC(=O)c1cc2c(cc1OC)[C@@]1(C)Cc3cnc(C)nc3C(C)(C)C1CC2 (mixture of isomers)
inhibition (Rattus norvegicus [2]): Active | Activity (Rattus norvegicus [3]): Active | Activity [4]: 96.5% | Activity (Rattus norvegicus [5]): 185.58 nmol/L | Activity [8]: Non-Toxic | CC50 at 24 h [9]: > 200 µM | Activity (Rattus norvegicus [11]): Active | Activity [14]: Non-Toxic | Activity (TM3 [15]): Active | Activity [16]: 98% | Activity (Rattus norvegicus [17]): Active | Activity (TM3 [18]): Active | Activity [19]: Non-Toxic | Activity (Rattus norvegicus [20]): Active | Activity (Rattus norvegicus [21]): 1.66 g | Activity (Rattus norvegicus [22]): 1.54 g | Activity (TM3 [23]): Dose-dependent effect | Activity (Rattus norvegicus [25]): 180.24 nmol/L | Activity (Rattus norvegicus [26]): Active | CC50 at 24 h [27]: > 200 µM | Activity (TM3 [30]): Active | Activity [31]: Non-Toxic | Activity (TM3 [33]): Active | Activity [34]: 94.6% | Activity (Rattus norvegicus [35]): Active | Activity [36]: Non-Toxic
